Patent US5523421A (Pacific Corporation, priority 1993, dated 1996)

Key:
[1] = DPPH (diphenylpicrylhydrazyl) radical-scavenging test; conditions: 100 μM DPPH in ethanol, 37° C., 30 minutes, 515 nm
Method: Harmful radicals-scavenging activity of the compounds of Examples 1 through 6 were compared with those of conventional anti-oxidants by using DPPH(diphenylpicrylhydrazyl) radical-scavenging test as follows:
DPPH was dissolved into ethanol to a concentration of 100 μM. A series of dilutions of compounds of Examples 1 through 6, vitamin C, vitamin E or hydroquinone were prepared.
Ethanol and water were used to dilute the test compounds. As a control, 1:1 mixture of ethanol and water was used. The series of dilutions of each test compound were mixed with 1,900 μl of DPPH solution and the dilution solvent was added to 2.0 ml. The resulting mixture was reacted in a 37° C. incubator for 30 minutes. The absorbance was measured at 515 nm. The radical-scavenging activities of the compounds of Examples 1 through 6 and conventional anti-oxidants were calculated by employing the following equation: [formula]
From the radical scavenging activity(%) by a series of dilutions of test compounds, IC50, i.e., a concentration of test compound which scavenge the radical, DPPH by 50% was calculated for each test compound.

[2] = system: human skin; test: human body patch test (skin safety); type: in vivo; conditions: for number of positive subject/the number of total subjects, 48 hours later / number of positive subject/the number of total subjects, 96 hours later: 0.2 wt % in cream, 20 μl finn chamber on brachium; for safety to human skin (in words): patch test conclusion
Method: In order to examine the safety of the compounds of Examples 1 through 6, the human body patch test was carried out as follows:
The brachium of thirty(30) healthy volunteers (15 females and 15 males) was thoroughly washed with 70% ethanol and applied with a finn chamber containing 20 μl of a conventional creamy preparation incorporating 0.2 wt % of one of the compound of Examples 1 to 6. The finn chamber was thoroughly bonded to the brachium using an adhesive tape. 48 hours later, the tape and chamber were removed, and the adherent site of the arm was wiped with a gauze to remove the remaining preparation and observed for redness(erythma), swelling, and papuol. 48 hours later, the site was examined again.
The results are shown in terms of the number of positive subject/the number of total subjects.

[3] = target: tyrosinase; test: Tyrosinase-inhibiting activity; type: biochemical, mushroom; conditions: for IC50: mushroom tyrosinase, tyrosine substrate, pH 6.8, 37° C., 10 minutes, absorbance at 475 nm
Method: As an enzyme, the tyrosinase, which was extracted from mushroom and produced by SIGMA was purchased. Tyrosine, a substrate was dissolved into distilled water to a concentration of 0.3 mg/ml and each 1.0 ml of the solution was placed into a test tube. […] Ethanol and water were used to dilute the test compounds. As a control, 0.9 ml of 1:1 mixture of ethanol and water was used. […] The test tube was quickly cooled in an ice water bath to stop the reaction, and the absorbance was measured at 475 nm. […] From the inhibitions(%) of tyrosinase by a series of dilutions of test compounds, IC50, i.e., a concentration of test compound which inhibit the tyrosinase by 50% was calculated for each test compound.

[4] = system: tyrosinase; conditions: background, known activity; cited from earlier work

Compound | IC50 [1] [µM] | IC50 [3] [µM] | tyrosinase-inhibiting activity (in words) [3] | number of positive subject/the number of total subjects, 48 hours later [2] | number of positive subject/the number of total subjects, 96 hours later [2] | safety to human skin (in words) [2] | skin response after 96 hours (in words) ([2]; preparation with 0.2 wt % of compound, 96 hours) | tyrosinase inhibition (in words, prior art) [4]
O=C(OCc1cc(=O)c(O)co1)c1ccccc1O [Example 2, 2-(2-hydroxybenzoyl)oxymethyl-5-hydroxy-4H-pyran-4-one] | 2230 | 15 | – | 2/30 | 0/30 | safe to the human skin | – | –
O=C(OCc1cc(=O)c(O)co1)c1cccc(O)c1 [Example 3, 2-(3-hydroxybenzoyl)oxymethyl-5-hydroxy-4H-pyran-4-one] | 2030 | 15 | – | 1/30 | 1/30 | considered to be safe | only one(1) among 30 subjects show a weak positive response | –
O=C(OCc1cc(=O)c(O)co1)c1ccc(O)cc1 [Example 1, 2-(4-hydroxybenzoyl)oxymethyl-5-hydroxy-4H-pyran-4-one] | 1910 | 10 | – | 0/30 | 0/30 | safe to the human skin | – | –
tocopherol [Vitamin E, reference compound] | 34.8 | – | – | – | – | – | – | –
O=c1cc(CO)occ1O [Kojic acid] | – | – | – | – | – | – | – | strongly inhibiting the action of tyrosinase
Oc1ccc(O)cc1 [Hydroquinone, reference compound] | 25.4 | – | – | – | – | – | – | –

The remaining compounds from weak to strong by IC50 [1], led by results:

IC50 [1] [µM] | IC50 [3] [µM] | tyrosinase-inhibiting activity (in words) [3] | Compound | number of positive subject/the number of total subjects, 48 hours later [2] | number of positive subject/the number of total subjects, 96 hours later [2] | safety to human skin (in words) [2] | skin response after 96 hours (in words) ([2]; preparation with 0.2 wt % of compound, 96 hours) | tyrosinase inhibition (in words, prior art) [4]
29.2 | – | – | O=C1O[C@H]([C@@H](O)CO)C(O)=C1O [Vitamin C, reference compound] | – | – | – | – | –
15 | 6 | strongest tyrosinase-inhibiting activity | O=C(OCc1cc(=O)c(O)co1)c1ccc(O)cc1O [Example 6, 2-(2,4-dihydroxybenzoyl)oxymethyl-5-hydroxy-4H-pyran-4-one] | 0/30 | 0/30 | safe to the human skin | – | –
11.5 | 4 | strongest tyrosinase-inhibiting activity | O=C(OCc1cc(=O)c(O)co1)c1ccc(O)c(O)c1 [Example 4, 2-(3,4-dihydroxybenzoyl)oxymethyl-5-hydroxy-4H-pyran-4-one] | 1/30 | 0/30 | safe to the human skin | – | –
11.3 | 14 | – | O=C(OCc1cc(=O)c(O)co1)c1cccc(O)c1O [Example 5, 2-(2,3-dihydroxybenzoyl)oxymethyl-5-hydroxy-4H-pyran-4-one] | 1/30 | 0/30 | safe to the human skin | – | –
